# Laboratory results as given in patent US7491495B2, “Adsorption of nucleic acids to a solid phase” (Roche Diagnostics Operations, Inc., priority 2004, dated 2009).
# Where two headings read alike, the source gives them in different places.
# Target: proteinase K (Parengyodontium album, UniProt P06873)
# Details: relative to 0 min control buffer without chaotropic agent (0.5 U/ml = 100%); for Activity of proteinase K at t = 0 min: 0 min value; for Activity of proteinase K at t = 15 min: 15 min value
# Procedure: 10 μl of a 20 mg/ml stock solution of proteinase K (Roche Diagnostics GmbH, Mannheimm, catalogue no. 745723; 90 mg dissolved in 4.5 ml water) was mixed with a chaotropic buffer containing 50 mM Tris-HCl pH 6.0, 1% DTT, 20% TRITON X-100 and x M Guanidinum thiocyanate; x=0, 1, 2, 3, 4, 5, 6). Directly after mixing the proteinase K activity was measured in a first aliquot (10 μl) of the mixture using the assay described below (0 min activity value). 15 min after mixing the proteinase K activity was measured in a second aliquot (10 μl) of the mixture using the assay described below (15 min activity value).
# 10 μl of the proteinase K in chaotropic buffer (see above, (A)) were mixed with assay buffer, that is to say 980 μl 0.2 M Triethanolamin, 0.05% (weight by volume) PEG 6000, 0.1 M Calcium chloride, and 10 μl of a 200 mM substate solution. The substrate was Suc-Ala-Ala-Ala-p-Nitroanilid. The assay buffer was provided in a cuvette. Immediately after mixing the cuvette was placed in a Photometer. Measurements (absorption) were taken over 15 min at 25° C. The activity of proteinase K in the assay buffer was calculated from the kinetics as indicated by a change in absorption at 405 nm.
# Table 1 lists the 0 min values of the activity of proteinase K in the presence of guanidinium thiocyanate at the different concentrations given in (A). Table 2 lists the 15 min values of the activity of proteinase K in the presence of guanidinium thiocyanate at the different concentrations given in (A) as well as the control value (no chaotropic agent present). The values are expressed in relation to the 0 min activity value of proteinase K in the control buffer without chaotropic agent (see (A)), corresponding to 0.5 U/ml; this value was set as 100%. The data of Table 1 and Table 2 are graphically represented in FIG. 1 and FIG. 2.
# Sequence of proteinase K (P06873 106-384): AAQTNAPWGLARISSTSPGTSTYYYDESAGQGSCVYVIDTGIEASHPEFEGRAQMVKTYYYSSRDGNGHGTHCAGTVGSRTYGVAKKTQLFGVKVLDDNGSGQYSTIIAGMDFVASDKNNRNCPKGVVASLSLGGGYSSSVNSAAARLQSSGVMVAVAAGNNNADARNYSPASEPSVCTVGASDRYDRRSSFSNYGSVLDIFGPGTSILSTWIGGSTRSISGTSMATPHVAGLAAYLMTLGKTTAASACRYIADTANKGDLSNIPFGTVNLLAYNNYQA
compound,measurement,setting,value
N#CS.N=C(N)N [guanidinium thiocyanate],Activity of proteinase K at t = 0 min,1 M guanidinium thiocyanate,94%
same,Activity of proteinase K at t = 15 min,1 M guanidinium thiocyanate,95%
same,Activity of proteinase K at t = 0 min,2 M guanidinium thiocyanate,100%
same,Activity of proteinase K at t = 15 min,2 M guanidinium thiocyanate,95%
same,Activity of proteinase K at t = 0 min,3 M guanidinium thiocyanate,66%
same,Activity of proteinase K at t = 15 min,3 M guanidinium thiocyanate,1%
same,Activity of proteinase K at t = 0 min,4 M guanidinium thiocyanate,1%
same,Activity of proteinase K at t = 15 min,4 M guanidinium thiocyanate,0%
same,Activity of proteinase K at t = 0 min,5 M guanidinium thiocyanate,0%
same,Activity of proteinase K at t = 15 min,5 M guanidinium thiocyanate,0%
same,Activity of proteinase K at t = 0 min,6 M guanidinium thiocyanate,0%
same,Activity of proteinase K at t = 15 min,6 M guanidinium thiocyanate,0%
